Measurements: US20140358094A1, “COMPOSITION, THE NANO-EMULSION AND TRANSDERMAL PATCH, METHODS OF PREPARATION AND USE THEREOF FOR TREATING TRAUMATIC INJURIES” (Nano and Advanced Materials Institute Limited, priority 2013, published 2014)

Assay: In vitro skin diffusion study, vertical Franz diffusion cell, HPLC-ESI-MS of markers
Format: in vitro ADME, pig
Settings: 24 hours; for elevation of diffusion properties, transdermal patch relative to herbal paste control, receiving medium: FIG. 4A, markers diffused in the receiving medium; for elevation of diffusion properties, transdermal patch relative to herbal paste control, pig skin: FIG. 4B, markers remained in the pig skin; for percentage by weight of marker diffused to the dermis (remained in pig skin), Herbal Paste (Control) / percentage by weight of marker in the receiving cell, Herbal Paste (Control): donor: herbal paste of Example 1; for percentage by weight of marker diffused to the dermis (remained in pig skin), Herbal Paste (Control) / percentage by weight of marker in the receiving cell, Herbal Paste (Control) / percentage by weight of marker diffused to the dermis (remained in pig skin), Transdermal Patch (Test Sample) / percentage by weight of marker in the receiving cell, Transdermal Patch (Test Sample): 37° C., pig skin; for percentage by weight of marker diffused to the dermis (remained in pig skin), Transdermal Patch (Test Sample) / percentage by weight of marker in the receiving cell, Transdermal Patch (Test Sample): donor: transdermal patch of Example 4.2
Method: A vertical Franz diffusion cell (Hanson Research, USA) is used to carry out in vitro skin diffusion study. […] The receiving medium is formed by physiological saline solution of (0.9% NaCl). The donor compartment is filled with the test sample or control sample. […] After 24 hours, contents of the receiving cell and pig skin sample are collected, the solution from the receiving cell (i.e. receiving medium) and pig skin are detected for chemical markers found therein in order to analyze the transdermal diffusion rate of the test sample and control sample. The test is performed in triplicate. HPLC-ESI-MS is used to detect diffused markers and control sample. Agilent 1290 Infinity LC system (purchased from Agilent Technologies) having a vacuum device, a binary liquid pump, an autosampler, Agilent 6410 triple quadrupole (Triple Quad) LC/MS connected with a Agilent MassHunter computer software (Workstation) is used. Acquity UPLC HSS T3 1.8 μm (2.1 mm×150 mm) column is used and the Acquity UPLC is maintained a temperature of 40° C. […] The flow rate is controlled at 0.5 mL/min, and injection volume of 20 µL. MS analysis using Agilent 6410 triple quadrupole LC/MS configured with ESI MS is carried out under negative ion mode and multiple reaction monitoring modes. Target ions of HYA is m/z 611.2->325.0; Rg1 is m/z 799.5->637.4; […] is m/z 927.5->603.3; Rb1 is m/z 1107.6->119.0; Kae is m/z 285.0->117.0; Emo is m/z 269.0->241.0; Rhe is m/z 283.0->239.0 and OA is m/z 455.3->407.4.

Molecule | elevation of diffusion properties, transdermal patch relative to herbal paste control, receiving medium [times] | elevation of diffusion properties, transdermal patch relative to herbal paste control, pig skin [times] | percentage by weight of marker diffused to the dermis (remained in pig skin), Herbal Paste (Control) [wt %] | percentage by weight of marker in the receiving cell, Herbal Paste (Control) (receiving medium 0.9% NaCl) [wt %] | percentage by weight of marker diffused to the dermis (remained in pig skin), Transdermal Patch (Test Sample) [wt %] | percentage by weight of marker in the receiving cell, Transdermal Patch (Test Sample) (receiving medium 0.9% NaCl) [wt %] | detection in the receiving medium (in words) (receiving medium 0.9% NaCl)
CC1(C)CC[C@]2(C(=O)O[C@@H]3O[C@H](CO[C@@H]4O[C@H](CO)[C@@H](O)[C@H](O)[C@H]4O)[C@@H](O)[C@H](O)[C@H]3O)CC[C@]3(C)C(=CC[C@@H]4[C@@]5(C)CC[C@H](O[C@@H]6OC[C@H](O)[C@H](O)[C@H]6O)[C@@](C)(CO)[C@@H]5CC[C@]43C)[C@@H]2C1 [ASP6, Asperosaponin VI] | 32 | 33 | 0.0859 | 0.1375 | 2.8010 | 4.4904 | 
Cc1cc(O)c2c(c1)C(=O)c1cc(O)cc(O)c1C2=O [Emo, Emodin] | 203 | 5 | 0.2773 | 0.0091 | 1.3656 | 1.8494 | 
CC(C)=CCC[C@](C)(O[C@@H]1O[C@H](CO[C@@H]2O[C@H](CO)[C@@H](O)[C@H](O)[C@H]2O)[C@@H](O)[C@H](O)[C@H]1O)[C@H]1CC[C@]2(C)[C@@H]1[C@H](O)C[C@@H]1[C@@]3(C)CC[C@H](O[C@@H]4O[C@H](CO)[C@@H](O)[C@H](O)[C@H]4O[C@@H]4O[C@H](CO)[C@@H](O)[C@H](O)[C@H]4O)C(C)(C)[C@@H]3CC[C@]12C [Rb1, Ginsenoside Rb1] | 472 | 17 |  | 0.0167 |  | 7.8820 | 
CC(C)=CCC[C@](C)(O[C@@H]1O[C@H](CO)[C@@H](O)[C@H](O)[C@H]1O)[C@H]1CC[C@]2(C)[C@@H]1[C@H](O)C[C@@H]1[C@@]3(C)CC[C@H](O)C(C)(C)[C@@H]3[C@@H](O[C@@H]3O[C@H](CO)[C@@H](O)[C@H](O)[C@H]3O)C[C@]12C [Rg1, Ginsenoside Rg1] | 14 | 21 |  | 1.1884 |  | 16.3635 | 

Results, then the molecule that gave them:

elevation of diffusion properties, transdermal patch relative to herbal paste control, receiving medium [times] | elevation of diffusion properties, transdermal patch relative to herbal paste control, pig skin [times] | percentage by weight of marker diffused to the dermis (remained in pig skin), Herbal Paste (Control) [wt %] | percentage by weight of marker in the receiving cell, Herbal Paste (Control) (receiving medium 0.9% NaCl) [wt %] | percentage by weight of marker diffused to the dermis (remained in pig skin), Transdermal Patch (Test Sample) [wt %] | percentage by weight of marker in the receiving cell, Transdermal Patch (Test Sample) (receiving medium 0.9% NaCl) [wt %] | detection in the receiving medium (in words) (receiving medium 0.9% NaCl) | Molecule
11 | 12 | 0.7532 | 6.5294 | 9.0852 | 72.3590 |  | O=c1c(O)c(-c2ccc(O)cc2)oc2cc(O)cc(O)c12 [Kae, Kaempferol]
 | 47 | 0.1253 | 0.0000 | 5.8588 | 0.0000 | cannot be detected | CC1(C)CC[C@]2(C(=O)O)CC[C@]3(C)C(=CC[C@@H]4[C@@]5(C)CC[C@H](O)C(C)(C)[C@@H]5CC[C@]43C)[C@@H]2C1 [OA, Oleanolic Acid]
21 | 11 | 0.1371 | 0.2299 | 1.4277 | 4.8924 |  | O=C(O)c1cc(O)c2c(c1)C(=O)c1cccc(O)c1C2=O [Rhein]
8 | 41 | 0.0117 | 2.0879 | 0.4772 | 16.5104 |  | Hydrosafflower yellow A [HYA]
